Test results as given in patent US8778959B2, “AZA-bridged ring-fused indoles and indolines” (AbbVie Inc., priority 2009, dated 2014).

Tests used:
[1] = tested on: primary postnatal (P0) cortical cells; experiment: Neurite Outgrowth Assay (Aβ1-42-treated cortical cells); assay type: cell-based, rat; conditions: n = 1; for % Attenuation Effect of 5 μM Aβ 1-42: 5 μM Aβ1-42; for Emax: Rattus norvegicus, maximum response relative to 300 nM dimebolin, at the concentration given, read-out: Maximum Effect (of % 300 nM Dimebolin) at Concentration; for Concentration (nM) of Maximum Effect: test compound concentration at which the maximum response was noted
Method: In addition to PC12 cells, other cellular model systems may also be used. Rat cortical cells can be cultured and prepared for high content microscopy analysis as previously described (Hu, M.; Schurdak, M. E.; et al. High content screen microscopy analysis of Aβ1-42-induced neurite outgrowth reduction in rat primary cortical neurons: Neuroprotective effects of α7 neuronal nicotinic acetylcholine receptor ligands. Brain Res. 2007, 1151, 227-235). Briefly, cortical cell cultures are plated at density of 5×10^5 cells/mL onto poly-D-lysine coated 96-well plates and maintained in a cell incubator at 37° C. with 5% CO2. Experiments are performed using 6-7 day-old cortical cell cultures by treating with test compounds. In some experiments, the effect of test compounds on reversing Aβ toxicity can also be measured (Hu, M.; Schurdak, M. E.; et al. High content screen microscopy analysis of Aβ1-42-induced neurite outgrowth reduction in rat primary cortical neurons: Neuroprotective effects of α7 neuronal nicotinic acetylcholine receptor ligands. Brain Res. 2007, 1151, 227-235). For assessment of neuroprotective effects, cells are first pretreated with test compounds for about 5 hours. Medium is then replaced with the medium containing freshly prepared about 5 μM Aβ1-42 peptide in the absence or presence of the test compounds for 3 days. The untreated group contains the same percentage of vehicle (DMSO) as in the treatment groups. Cells are fixed with approximately 4% paraformaldehyde containing 0.5% Hoechst 33342 for about 15 minutes, followed by three washes using PBS (pH 7.4) and blocked with 10% donkey serum in PBS for 1 hour at room temperature. The cells are then incubated overnight at about 4° C. with mouse anti-tubulin monoclonal antibody (1:100) for staining neurons and rabbit anti-GFAP (1:1000) for staining glia. In the next day, cells are incubated with FITC-labeled anti-mouse and TRITC-labeled anti-rabbit antibodies (1:1000) for about 1 hour at room temperature. After fixing and staining the cells, nuclei (360/400 nm excitation and 465/300 nm emission filters), neuron (475/350 nm excitation and 535/400 nm emission filters) and glial cell (535 nm excitation and 610 nm emission filters) images are collected using the ImageExpress Micro automatic fluorescent microscopy system (Molecular Devices, Sunnyvale, Calif.) employing a Nikon 10× Plan Fluor objective and Cool Snap HQ CCD camera. The Neurite Outgrowth module in the MetaMorph Imaging software can be used to automatically count total cell number, number of neuron cells, and the extent of neurite outgrowth.
The neurite outgrowth observed for untreated cells is set to 100% response. Treatment of cells with compounds prior to and concomitantly with Aβ1-42 gave a neuroprotective effect with neurite outgrowth maintained or enhanced relative to untreated cells.

[2] = tested on: SK-N-SH human neuroblastoma cells; experiment: Serum Deprivation/JC-1 Mitochondrial Membrane Potential (MMP) Assay; assay type: cell-based; conditions: Homo sapiens, SK-N-SH, 18 h; for Emax: percent maximal intensity in JC-1 ratio normalized to peak value for 10 μM dimebolin, read-out: JC-1 max %; for EC50: serum deprivation ~18 hours, JC-1 ratio normalized to peak value for 10 μM dimebolin, single curve fit to mean of n=2-3
Method: SK-N-SH human neuroblastoma cells obtained from American Type Culture Collection (Rockville, Md.) were maintained in the log phase of growth in Minimal Essential Media (MEM), 10% heat inactivated fetal calf serum and 100 units/mL antibiotic-antimycotic (AA). Cells were cultured and maintained in a humidified incubator at 37° C. under 5% CO2 and 95% air. Cells were trypsinized (0.25%) and subcultured every 3 days and used from 15-18 passages. All cell culture supplies were obtained from Invitrogen (Carlsbad, Calif.).
SK-N-SH cells were plated 2-3 days in advance at a concentration of 50,000 cells/well onto collagen coated black-walled 96 well plates (Becton-Dickinson, Bedford, Mass.) in a total volume of 200 μL. On day of experimental treatment, the media containing serum was aspirated from each well and rinsed once with MEM/1% AA without serum. The cells then were incubated overnight in 100 μL of MEM/1% AA (no serum) with and without dimebolin or novel chemical entities overnight for ˜18 hours. The following day, JC-1 dye (5,5′,6,6′-tetrachloro-1,1′,3,3′-tetraethylbenzimidazolcarbocyanide) was diluted 1:10 into MEM media according to the JC-1 Mitochondrial Membrane Potential Assay Kit: (Cayman Chemical Company, Ann Arbor, Mich.) and then 10 μL of the JC-1 dye solution was added to each well. The plates were centrifuged for 5 minutes at 400×g at room temperature followed by 35 minute incubation at 37° C. The plates were washed twice with 200 μL of provided Assay Buffer followed an addition of 100 μL of Assay Buffer to each well. The plates were read with an excitation and emission of 560 nm and 595 nM for red fluorescence and with an excitation and emission of […] and 535 nM for green fluorescence to determine the final JC-1 value taking the red to green fluorescence ratio. This assay is based on change in mitochondrial membrane potential (MMP) using this lipophilic cationic dye, JC-1, by monitoring the changes in the ratio of red to green fluorescence as the MMP depolarizes. This change in MMP reflects the health of the cell with healthy, viable cells have a high JC-1 ratio and high MMP whereas apoptotic, unhealthy cells have a low JC-1 ratio or low MMP.
For the ability of compounds to reverse the stress due to serum deprivation and increase the JC-1 ratio, the percent maximal intensity in JC-1 ratio was normalized to that induced by the peak value for 10 μM dimebolin and plotted against the compound concentration to calculate EC50 values and to control for plate-to-plate variability. Concentration-response data were analyzed using GraphPad Prism (San Diego, Calif.); the EC50 values were derived from a single curve fit to the mean data of n=2-3, in duplicates.
All compounds were dissolved in dimethyl sulfoxide at 10 mM stock solutions and tested at a concentration that the dimethyl sulfoxide levels never exceeded 1%.

[3] = tested on: mouse model of multiple sclerosis; conditions: in vivo administration; cited from earlier work
[4] = tested on: primary rat cortical neurons; conditions: comparable to that evoked by BDNF; cited from earlier work
[5] = tested on: patients with mild-to-moderate Alzheimer's disease; conditions: cited from earlier work

c1ccc(COc2cccc3c4c([nH]c23)C[C@H]2CCC[C@@H]4N2)cc1 (stereo in doubt) [Example 9, (7R*,11S*)-4-(benzyloxy)-6,7,8,9,10,11-hexahydro-5H-7,11-epiminocycloocta[b]indole]
% Attenuation Effect of 5 μM Aβ 1-42 [1]: 45 (n = 1) %
Emax [1]: 115%
Concentration (nM) of Maximum Effect [1]: 0.03 nM
Emax [2]: 130%
EC50 [2]: 6.03 µM

O=C1C=C(c2ccccc2)C(=O)N1c1cccc(Cl)c1 [1-(3-chlorophenyl)-3-phenyl-pyrrole-2,5-dione]
Development of the disease [3]: significantly prevented the development of the disease

Cc1ccc(/C=C/c2cccc3c4c([nH]c23)CC2CCC4N2C)cn1 (centres unmarked) [Example 1, 11-methyl-4-[(E)-2-(6-methylpyridin-3-yl)vinyl]-5,6,7,8,9,10-hexahydro-7,10-epiminocyclohepta[b]indole]
% Attenuation Effect of 5 μM Aβ 1-42 [1]: 27 (n = 1) %
Emax [1]: 103%
Concentration (nM) of Maximum Effect [1]: 0.3 nM
Emax [2]: 214%
EC50 [2]: 3.19 µM

Cc1ccc(-c2cccc3c4c([nH]c23)CC2CCC4N2C)cn1 (centres unmarked) [Example 33, 11-methyl-4-(6-methylpyridin-3-yl)-5,6,7,8,9,10-hexahydro-7,10-epiminocyclohepta[b]indole]
Emax [2]: 158%
EC50 [2]: 5.08 µM

CN1C2CCC1c1c([nH]c3c(-c4cnc5ccccc5c4)cccc13)C2 (centres unmarked) [Example 34, 11-methyl-4-(quinolin-3-yl)-5,6,7,8,9,10-hexahydro-7,10-epiminocyclohept[b]indole]
Emax [2]: 189%
EC50 [2]: 1.34 µM

c1cncc(-c2cccc3c4c([nH]c23)CC2CCC4N2)c1 (centres unmarked) [Example 35, 4-(pyridin-3-yl)-5,6,7,8,9,10-hexahydro-7,10-epiminocyclohepta[b]indole]
Emax [2]: 87.2%
EC50 [2]: 11 µM

COC(=O)N1C2CCC1c1c([nH]c3c(-c4cnc5ccccc5c4)cccc13)C2 (centres unmarked) [Example 36, methyl 4-(quinolin-3-yl)-5,6,7,8,9,10-hexahydro-7,10-epiminocyclohepta[b]indole-11-carboxylate]
Emax [2]: 140%
EC50 [2]: 1.13 µM

Cc1ccc(-c2cccc3c4c([nH]c23)CC2CNC4C2)cn1 (centres unmarked) [Example 37, 7-(6-methylpyridin-3-yl)-1,2,3,4,5,6-hexahydro-1,4-methanoazepino[4,3-b]indole]
Emax [2]: 131%
EC50 [2]: 7.33 µM

Cc1ccc(C#Cc2cccc3c4c([nH]c23)CC2CNC4C2)cn1 (centres unmarked) [Example 38, 7-[(6-methylpyridin-3-yl)ethynyl]-1,2,3,4,5,6-hexahydro-1,4-methanoazepino[4,3-b]indole]
Emax [2]: 120%
EC50 [2]: 5.88 µM

Cc1ccc2c(c1)c1c(n2CCc2ccc(C)nc2)CCN(C)C1 [dimebolin, 2,3,4,5-tetrahydro-2,8-dimethyl-5-[2-(6-methyl-3-pyridinyl)ethyl]-1H-pyrido[4,3-b]indole]
Neurite outgrowth [4]: increase neurite outgrowth
Clinical course of disease (ADAS-Cog, improvement over baseline) ([5]; 20 mg three times a day (60 mg/day)): significant improvement
Most frequent adverse event ([5]; reported clinical studies): dry mouth
